Patent US11419843B2, “Small molecule BCL-2 functional converters as cancer therapeutics” (Oregon State University, priority 2016, dated 2022)

What was measured:
[1] = system: MDA-MB-468 cells with or without Bcl-2 expression; assay: Viability of MDA-MB-468 cells with Bcl-2 knockdown; assay type: cell-based, human; details: 10% FBS; for Effect of Bcl-2 knockdown on viability effect in MDA-MB-468 cells: 48 h
Experimental: For Bcl-2 knockdown experiments, MDA-MB-468 cells were seeded at 4,000 cells per well in a 96 well black plate. The day after seeding, cells were subjected to Bcl-2 knockdown with 25 ng siRNAs (Dharmacon Research, Lafayette, Colo.) or 25 ng control siRNA against luciferase (Dharmacon Research, Lafayette, Colo.) using Dharmafect as transfecting reagent. After 72 h of transfection time, cells were treated with indicated compounds for 48 h and viability was assayed with CellTiter Glo Luminescent Cell Viability Assay (Promega, Madison, Wis.).

[2] = system: LNCaP, HepG2, H460, A375, U251, ZR-75-1 cells; assay: Viability of a range of cancer cell types; assay type: cell-based, human
From the text: Cell titer glo assay (Promega, CA) was used for assessing viability as per manufacturer instructions. DAPI stain was used to assess apoptosis.

[3] = system: LMD231-Luc cells; assay: Breast cancer lung metastasis model (tail vein, bioluminescence); assay type: in vivo, nude mice; details: for Growth of lung metastasis (bioluminescence): intraperitoneal, end of 7 weeks
Experimental: FIG. 19A About 200,000 LMD-231 cells stably expressing luciferase was injected into the tail vein of 6 week old nude mice. Lung metastasis was formed in 2 weeks. Mice were treated with 100 mg/kg BFC1108 4 times a week by intraperitoneal route. Bioluminescent imaging was performed once a week and quantified.
About 200,000 LMD-231 cells stably expressing luciferase was injected into the tail vein of 6 week old nude mice. Lung metastasis was detectable in 2 weeks after injection of tumor cells. Mice were treated with 50 mg/kg of BFC1103 6 times a week by intraperitoneal injections. Bioluminescent imaging was performed once a week and quantified. * P<0.05.
For the lung metastatic study, 5 week old Nude mice were procured from Jackson Labs. About 200,000 LMD231-Luc2 cells in PBS were injected into the tail vein. Lung metastasis could be detected in 2 weeks' time. Treatments with BFC1108 at 100 mg/kg, 4 times a week, were started a day after the cells were injected. Body weight was measured twice a week. Bioluminescence was measured once a week while the mice are under anesthesia. At the end of the study mice were euthanized and lung tissues were dissected and fixed for immunohistochemical analysis.
For experimental lung metastases model, LMD-231 cells derived from MDA-MB-231 that repeatedly colonized lungs were used23. Lenti viral particles with luciferase expression vector (GenTarget, San Diego, Calif.) was used to transduce LMD-231 cells to obtain high luciferase expressing clone after clonal expansion. The stable expression of luciferase was monitored for 7 weeks in vitro before using in animal experiments.
All animal experiments were performed as per approved protocols from the IACUC at Oregon State University. 5 week old nude mice were procured from Jackson Labs (Bar Harbor, Me.). Treatments were started a day after the LMD-Luc cells (200,000 cells suspended in DPBS) were injected into the lateral tail vein. Body weight was measured twice a week. Bioluminescence was measured twice a week using IVIS Lumina II (PerkinElmer, Waltham, Mass.) as per manufacturer instructions, while the mice were under anesthesia.

[4] = system: H460 parental and derived paclitaxel resistant cells; assay: Viability of H460 parental and paclitaxel resistant cells; assay type: cell-based, human; details: for Viability of H460 resistant vs parental line: 72 hours
Experimental: Percentage viability relative to vehicle treatment was calculated. Representative of three independent assays conducted in triplicate.
FIG. […] Percentage viability relative to vehicle treatment. Representative of three independent assays conducted in triplicate.
Representative of three independent assays conducted in triplicate.
Cell lines were obtained from ATCC and maintained according to manufacturer's instructions. The human lung cancer cell line NCI-H460, H69AR (ATCC) were cultured in RPMI medium (Corning) containing 10% FBS. The human breast cancer cell line MDA-MB-231 was cultured in DMEM medium (Corning) containing 10% FBS. All cell lines were maintained at 5% CO2 and 37° C. Paclitaxel resistant H460 cells were derived by treating cells once a week over 6 weeks, initially with 1 nM paclitaxel and then increasing dose incrementally up to 100 nM. Once resistance was confirmed, paclitaxel was withdrawn from the cells. Resistance to paclitaxel was maintained without presence of paclitaxel measured up to 2 months. A parental line was maintained for a similar number of passages as the resistant line. All experiments were performed using cells that had not been treated with paclitaxel in at least three passages.
Cells of interest were plated at 2000 cells per well in 96-well black tissue culture plate and allowed to adhere to the plate overnight. Viability assays were performed using 10% serum medium unless otherwise stated. Drugs were diluted in supplemented tissue culture medium and added at increasing concentrations, with DMSO as a vehicle control. […] Luminescence was measured using Tropix TR717 Microplate luminometer. Percentage of viable cells is relative to vehicle (100%). As a complementary viability assay, eBioscience Fixable Viability Dye eFluor 660(65-0864) was used to stain dead cells and analyzed using flow cytometry.

[5] = molecular target: Bcl-2 (Homo sapiens, UniProt P10415); assay: Bcl-2 conformational change by Bcl-2 BH3 domain antibody and flow cytometry; details: 10 μM, 10% serum
Chain of Bcl-2 (P10415 whole entry, the tested form may be a part): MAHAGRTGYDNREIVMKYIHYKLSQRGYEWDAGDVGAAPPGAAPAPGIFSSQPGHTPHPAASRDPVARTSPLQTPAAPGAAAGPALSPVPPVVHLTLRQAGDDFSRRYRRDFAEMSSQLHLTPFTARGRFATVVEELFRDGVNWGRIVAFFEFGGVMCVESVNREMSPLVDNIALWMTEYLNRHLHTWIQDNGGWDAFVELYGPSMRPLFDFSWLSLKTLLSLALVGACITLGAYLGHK
Experimental: MDA-MB231/Bcl-2 cells and H460 cells were exposed to MTX at 10 μM concentration for 24 h in a medium containing 10% serum. Change in Bcl-2 conformation was determined using Bcl-2 BH3 only anti-body followed by flow cytometric analysis.
Change in conformation of Bcl-2 was determined by using Bcl-2 BH3 antibody followed by flow cytometric analysis.
Change in conformation of Bcl-2 was determined by using Bcl-2 BH3 only antibody followed by flow cytometric analysis.
When there is a conformational change in Bcl-2 protein, the BH3 domain is exposed and is detected by the Bcl-2 BH3 domain antibody.

[6] = system: MDA-MB-231 cells with or without the Bcl-2 expression vector; assay: Apoptosis in MDA-MB-231 cells (DAPI, annexin V staining); assay type: cell-based, human; details: 10% FBS
[7] = system: MDA-MB-231/Bcl-2 cells; assay: Orthotopic breast cancer xenograft in mammary fat pad; assay type: in vivo, NOD SCID mice; details: 100 mg/kg twice a week; for Immunohistochemistry of tumor sections (TUNEL, Bcl-2 BH3, activated Bax, cleaved caspase-3): end of the study; for Tumor growth: intraperitoneal
Experimental: […] were implanted in the mammary fat pad of NOD SCID mice (N=10). Once palpable tumors were formed MTX was treated at 100 mg/kg twice a week by intraperitoneal injections. Tumor measurements were made with digital calipers twice a week.
106 MDA-MB-231/Bcl-2 cells were implanted in the mammary fat pad of NOD. SCID mice (n=8 per group). Once palpable tumors formed, mice were treated with 100 mg/kg BFC1108 twice a week by i.p. route. Tumor measurements were made with digital calipers twice a week.
All animal experiments were performed as per approved protocols from the IACUC at Oregon State University. 5 week old NOD.SCID mice were procured from Jackson Labs. Treatments were started once palpable tumors were detected. MTX was treated twice a week at 100 mg/kg dose. Body weight was measured twice a week. Tumor burden was measured twice a week using digital calipers.
All animal experiments were performed as per approved protocols from the IACUC at Oregon State University. For the mammary fat pad xenograft study, 5 week old NOD.SCID mice were procured form Jackson labs. About 10^6 cells were injected into both the lower flanks of mammary fat pad in PBS. Palpable tumors were detected in 4 weeks after which treatment with BFC1108 at 100 mg/kg twice a week continued till end of the study. Tumor mass was measured using digital calipers twice a week along with body weight. At the end of the study mice were euthanized and tumors were collected for immunohistochemical analysis.

Change in Bcl-2 conformation (BH3 domain exposure) in H460 cells ([5]; 24 h) | Compound | Effect of Bcl-2 knockdown on viability effect in MDA-MB-468 cells [1] | Viability of various cancer cell lines ([2]; 24 h, 10% FBS) | H&E analysis of lung tissue ([3]; 50 mg/kg, 6 days per week) | Ki67 staining of lung tissue ([3]; 50 mg/kg, 6 days per week) | Growth of lung metastasis (bioluminescence) ([3]; 50 mg/kg, 6 days per week) | Viability of H460 resistant vs parental line [4] | Change in Bcl-2 conformation (BH3 domain exposure) in MDA-MB-231/Bcl-2 cells ([5]; 48 h) | Viability of a range of cancer cell types ([2]; 48 h, 10% serum) | Apoptosis by annexin V staining ([6]; 10 μM, 48 h) | Immunohistochemistry of tumor sections (TUNEL, Bcl-2 BH3, activated Bax, cleaved caspase-3) [7] | Tumor growth [7] | Ki-67 staining of lung tissue ([3]; 100 mg/kg, 4 times a week) | Growth of lung metastasis (bioluminescence) ([3]; 100 mg/kg, 4 times a week) | Cell viability, combination with paclitaxel ([4]; paclitaxel 1 nM and BFC1108 20 μM, 24 hours) | Effect of Bcl-2 knockdown on effect in MDA-MB-468 cells ([1]; various concentrations, 24 h) | Apoptosis by nuclear condensation and fragmentation (DAPI) ([6]; 10 μM) | Apoptosis by annexin V staining ([6]; indicated concentrations) | Change in Bcl-2 conformation (BH3 domain exposure) in MDA-MB-231/Bcl-2 cells ([5]; 24 h)
– | CCCCc1ccc(NC(=O)CN(Cc2ccccc2)S(C)(=O)=O)cc1 [BFC1103, N-2-benzyl-N-1-(4-butylphenyl)-N-2-(methylsulfo-nyl) glycinamide] | Suppression of Bcl-2 expression reduced the effect of BFC1103 | reduced the viability of a host of cancer cell types including breast cancer ZR-75-1, non-small cell lung cancer H460, melanoma A375, liver cancer HepG2, and prostate cancer LNCaP cells | potent suppression of tumor growth | lung tissues from vehicle treated mice had a significantly higher number of proliferating cells, as measured by Ki67 staining, than the BFC1103 treated mice | significantly suppressed the growth of lung metastasis | reduced viability of resistant line preferentially | changed conformation of Bcl-2 of was detected in MDA-MB-231/Bcl-2 cells | – | – | – | – | – | – | – | – | – | – | –
– | CCOc1ccccc1NC(=O)c1cc(Cl)ccc1NC(=O)c1ccc(OC)cc1 [BFC1108, 5-chloro-N-(2-ethoxyphenyl)-2-[(4-methoxybenzoyl)amino]-benzamide] | When Bcl-2 was knocked down, the cells were rescued from the effects of BFC1108 | – | – | – | – | reduced viability of resistant line preferentially | changed conformation of Bcl-2 was detected | reduce viability in a variety of cancer cell types including LNCaP, HepG2, H460, A375 and U251 | increased apoptosis in MDA-MB-231/Bcl-2 cells was observed | functional conversion of Bcl-2 leading to activation of intrinsic mitochondrial death pathway was validated in vivo | significantly reduced the growth of a xenograft tumor | only vehicle treated animals showed Ki-67 positivity | suppressed the growth of lung metastasis | synergistic reduction in cell viability | – | – | – | –
also observed in H460 cells | CN(Cc1cnc2nc(N)nc(N)c2n1)c1ccc(C(=O)N[C@@H](CCC(=O)O)C(=O)O)cc1 [MTX, (2S)-2-[[4-[(2,4 diaminopteridin-6-yl)methylmethylamino]benzoyl]amino] pentanedioc acid] | – | – | – | – | – | – | – | – | – | caused a change in conformation of Bcl-2 and induced apoptosis in Bcl-2 over-expressing tumors | significant inhibition of tumor growth | – | – | – | Knockdown of Bcl-2 in MDA-MB-468 cells diminished the apoptotic effect of MTX | higher apoptosis rate in the presence of the Bcl-2 protein | increased apoptosis in the presence of the Bcl-2 protein | considerable shift in the staining of MTX treated cells indicating change in the Bcl-2 conformation
